Drawing on US20260364080A1, “PYRAZOLO-PYRIMIDINONE COMPOUNDS FOR USE IN METHODS OF INHIBITING WEE1 A KINASE” (Acrivon Therapeutics, Inc., priority 2023, published 2026), this text covers IC50 and EC50 for seven compounds.

One may read the IC50 as the concentration needed to halve the response being measured. A word on the EC50: it is the concentration giving half of the maximal effect.

Test [1] concerns the target T1, recombinant human Wee1A kinase (Homo sapiens, UniProt P30291).
T1 construct: full length Wee1 kinase was expressed by baculovirus in insect cells; purchased Invitrogen PV3817; host or cells: insect cells (baculovirus)
The test can be described thus: Wee1A kinase binding assay (LanthaScreen Eu time-resolved FRET). The settings on record: 30 nM tracer 178, 5 nM Wee1A kinase, 2 nM Eu-labeled antibody; 60 minutes at room temperature; read-out: Wee1A kinase Binding IC50. A digest of the protocol: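 Full-length, baculovirus-expressed GST-tagged Wee1A (5 nM) was mixed with 2 nM Eu-anti-GST antibody, 30 nM kinase tracer 178 and compound (1% DMSO). Buffer was 50 mM HEPES pH 7.5, 10 mM MgCl2, 1 mM EGTA, 0.01% Brij-35, incubated 60 min at room temperature. TR-FRET 665/615 nm emission ratios from duplicates were curve-fitted.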
A general note: In TR-FRET formats the signal depends on donor and acceptor labels being close together.

For test [2], the target named is T2, Wee1A kinase (CDK1 Tyr15 phosphorylation in ACHN renal cell carcinoma cells) (Homo sapiens, UniProt P30291).
T2 construct: pCDK1 Tyr15 immunofluorescence read-out
T2 sequence (P30291 whole entry): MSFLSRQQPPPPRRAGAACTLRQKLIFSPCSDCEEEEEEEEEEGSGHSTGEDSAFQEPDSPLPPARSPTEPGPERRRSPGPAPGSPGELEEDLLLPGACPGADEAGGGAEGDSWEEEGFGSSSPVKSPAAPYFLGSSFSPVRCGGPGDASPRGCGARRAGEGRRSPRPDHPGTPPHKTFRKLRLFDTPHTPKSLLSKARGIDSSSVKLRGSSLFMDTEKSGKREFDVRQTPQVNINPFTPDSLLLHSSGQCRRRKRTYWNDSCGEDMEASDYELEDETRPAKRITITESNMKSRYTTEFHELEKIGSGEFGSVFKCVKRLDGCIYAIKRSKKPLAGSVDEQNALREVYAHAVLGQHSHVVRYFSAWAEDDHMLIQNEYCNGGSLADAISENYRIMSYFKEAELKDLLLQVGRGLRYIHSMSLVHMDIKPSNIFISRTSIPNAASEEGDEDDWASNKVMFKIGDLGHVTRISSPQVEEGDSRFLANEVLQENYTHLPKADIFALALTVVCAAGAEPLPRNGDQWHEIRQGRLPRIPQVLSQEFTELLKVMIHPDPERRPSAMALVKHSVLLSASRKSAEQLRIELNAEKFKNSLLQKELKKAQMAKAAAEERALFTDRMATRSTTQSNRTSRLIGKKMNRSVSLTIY
The test can be described thus: High-content imaging of pCdk1 Y15, Wee1A kinase target engagement in ACHN cells. The format is cell-based. The settings on record: 4 h treatment, nuclear positivity for pCdk1 Y15 vs DMSO control, read-out: CDK1 Tyr15 Phosphorylation EC50. In short, it runs like this:
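ACHN cells exposed to compound for 4 h over 7–5,000 nM or 0.3–200 nM, then fixed and immunostained for pCDK1 Y15 with DAPI nuclear counterstain. The percentage of pCdk1 Y15 nucleus-positive cells relative to DMSO control was imaged per well; EC50 from dose-response curves.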

The next test deals with ACHN cells. The test can be described thus: Cell Titer Glo viability assay, ACHN cells. In kind it is cell-based. The settings on record: Homo sapiens, 144 h, absolute EC50. In short, it runs like this: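 Cells grown in MEM with 10% FCS were seeded at 500 (A427), 400 (ACHN) or 250 (DAOY) per well and treated the next day with compound at 17 to 10 000 nM. Viability relative to untreated control was read at 144 h by CellTiter-Glo 2.0.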
For orientation: Cellular ATP, detected with luciferase, serves as a proxy for viable cell number.

In test [3] the target is T3, Myt1 kinase (recombinant PMYT-1) (Homo sapiens, UniProt Q99640).
T3 construct: full length PMYT-1 was expressed by baculovirus in insect cells; purchased Invitrogen A30984; host or cells: insect cells (baculovirus)
T3 sequence (Q99640 1-499): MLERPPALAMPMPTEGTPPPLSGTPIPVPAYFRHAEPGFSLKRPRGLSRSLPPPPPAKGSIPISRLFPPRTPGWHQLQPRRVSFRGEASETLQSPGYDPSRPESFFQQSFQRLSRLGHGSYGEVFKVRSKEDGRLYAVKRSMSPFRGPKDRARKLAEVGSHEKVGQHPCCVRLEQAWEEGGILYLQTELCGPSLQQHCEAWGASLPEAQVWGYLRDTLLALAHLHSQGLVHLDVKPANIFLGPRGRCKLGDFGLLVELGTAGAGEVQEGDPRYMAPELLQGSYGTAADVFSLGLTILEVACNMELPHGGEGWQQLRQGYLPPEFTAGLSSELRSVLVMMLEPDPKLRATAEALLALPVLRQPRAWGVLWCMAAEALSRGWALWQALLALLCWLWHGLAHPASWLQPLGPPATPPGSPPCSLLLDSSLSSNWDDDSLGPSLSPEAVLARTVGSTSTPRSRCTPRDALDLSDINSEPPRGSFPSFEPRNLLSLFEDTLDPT
The test can be described thus: Myt1 kinase binding assay (LanthaScreen Eu Kinase Binding Assay). The settings on record: 3 nM tracer 178, 2.5 nM PMYT-1, 1 nM Eu-labeled antibody; read-out: Myt1 kinase Binding IC50. A digest of the protocol: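 The binding affinity of compounds for Myt1 kinase was measured with a LanthaScreen Europium (Eu) Kinase Binding Assay, a time-resolved FRET format in which test compounds compete against a labeled kinase tracer, and the results were expressed as IC50 values describing compound binding to Myt1.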

Test [4] deals with T4, Myt1 kinase (CDK1 Thr14 phosphorylation in ACHN renal cell carcinoma cells) (Homo sapiens, UniProt Q99640).
T4 construct: pCDK1 Thr14 AlphaLISA read-out
T4 sequence (Q99640 1-499): T3 sequence (Q99640 1-499)
The test can be described thus: AlphaLISA assay, Myt1 kinase target engagement (phospho-CDK1 Thr14) in ACHN cells. In kind it is cell-based. Conditions: ACHN cells (marked *); 4 h treatment. The procedure:
Each of an ACHN renal cell carcinoma cell line (ATCC) and a DAOY medulloblastoma cell line, and an A427 lung cancer line were cultured in Minimum Essential Medium Eagle supplemented with 10% fetal calf serum (Sigma), 1% Penicillin-Streptomycin and 10 mM HEPES buffer (HyClone). Cell cultures were kept in a humidified incubator at 37 °C and 5% CO2. Cells were routinely tested for Mycoplasma contamination.
For target engagement assessment of Myt1 kinase inhibition, quantification of Cdk1 phosphorylated on threonine 14 was detected using the AlphaLISA® SureFire® Ultra™ Human Phospho-CDK1 (Thr14) assay (Perkin Elmer). DAOY or ACHN cells were seeded into tissue culture treated 96-well plates (VWR) to a density of 10,000 or 20,000 cells per well respectively. 24 h post seeding cells were treated for 4 h with compounds at concentrations ranging from 7 to 5000 nM. Cells were washed with PBS and lysed in 50 μl AlphaLISA lysis buffer before freezing at −80 C. Ten ul of the lysate was transferred to 384 well plates and incubated with AlphaLISA donor and acceptor beads according to the manufacturer's instructions. Dose response curves and EC50 values were calculated and visualized using GraphPad Prism version 9. Target engagement for Myt1 kinase can also be measured using the same AlphaLISA assay in OVCAR3 cells, an ovarian cancer cell line. NIH:OVCAR-3 (OVCAR3) cells are cultured in RPMI-1640 medium supplemented with 0.01 mg/ml insulin, 20% FBS, 1% Penicillin-Streptomycin and 10 mM HEPES buffer. 14,000 cells per well are seeded into 96 well tissue culture plates in full medium. Twenty-four hours post seeding, cells are treated with compound for 4 hours at concentrations ranging from 0.017 nM to 1000 nM.

T1 sequence (P30291 whole entry): as the sequence (P30291 whole entry) above

Consider `C=CCn1c(=O)c2cnc(Nc3ccc4cn(C)nc4c3)nc2n1-c1cccc(OC2CCN(C)CC2)n1` [Compound 398, 2-allyl-6-((2-methyl-2H-indazol-6-yl)amino)-1-(6-((1-methylpiperidin-4-yl)oxy)pyridin-2-yl)-1,2-dihydro-3H-pyrazolo[3,4-d]pyrimidin-3-one], for which the IC50 was under 10 nM in test [1] and 20 to 100 nM in test [3]. Moreover, the 50% effective concentration (EC50) in test [2] was under 100 nM; with ACHN cells, at most 100 nM; in test [4] it was 200 to 500 nM.

Consider `CCn1c(=O)c2cnc(Nc3ccc(-c4cnn(C)c4)cc3)nc2n1-c1cccc(OC2CCN(C)CC2)n1` [Compound 277, 2-ethyl-1-[6-(1-methyl-4-piperidyloxy)-2-pyridyl]-6-[p-(1-methyl-4-pyrazolyl)phenylamino]-1,2-dihydro-3H-1,2,5,7-tetraazainden-3-one], for which the IC50 in test [1] is under 10 nM; in test [3], 20 to 100 nM. In addition, the results for the EC50 (in test [2]; in the test on ACHN cells; in test [4]) were under 100 nM, at most 100 nM and under 200 nM, respectively.

In the case of `C=CCn1c(=O)c2cnc(Nc3ccc4c(cnn4C)c3)nc2n1-c1ccnc(OC2CCN(C)CC2)n1` [Compound 279, 2-allyl-6-((1-methyl-1H-indazol-5-yl)amino)-1-(2-((1-methylpiperidin-4-yl)oxy)pyrimidin-4-yl)-1,2-dihydro-3H-pyrazolo[3,4-d]pyrimidin-3-one], the half-inhibitory concentration (IC50) in test [1] was under 10 nM; in test [3], 20 to 100 nM. The half-maximal effective concentration (EC50) in test [2] is under 100 nM; in the test with ACHN cells, at most 100 nM; in test [4] it was 200 to 500 nM.

For the compound `[2H]C([2H])([2H])c1cccc(Nc2ncc3c(=O)n(CC=C)n(-c4cccc(OC5CCN(C)CC5)n4)c3n2)c1` [Compound 333, 2-allyl-6-((3-(methyl-d3)phenyl)amino)-1-(6-((1-methylpiperidin-4-yl)oxy)pyridin-2-yl)-1,2-dihydro-3H-pyrazolo[3,4-d]pyrimidin-3-one], the IC50 is under 10 nM in test [1] and 20 to 100 nM in test [3]. Besides, the EC50 in test [2] is under 100 nM; in the test with ACHN cells, at most 100 nM; in test [4] it was 200 to 500 nM.

On to `C=CCn1c(=O)c2cnc(Nc3ccc(F)c(C)c3)nc2n1-c1cccc(OC2CCN(C)CC2)n1` [Compound 206, 6-[(4-fluoro-3-methylphenyl)amino]-1-{6-[(1-methylpiperidin-4-yl)oxy]pyridin-2-yl}-2-(prop-2-en-1-yl)-1H,2H,3H-pyrazolo[3,4-d]pyrimidin-3-one], for which the IC50 in test [1] was under 10 nM; in test [3], 20 to 100 nM. Moreover, the 50% effective concentration (EC50) is under 100 nM in test [2], at most 100 nM in the test with ACHN cells and 200 to 500 nM in test [4].

Turning to `C=CCn1c(=O)c2cnc(Nc3ccc4nn(C(C)(C)C)cc4c3)nc2n1-c1cccc(OC2CCN(C)CC2)n1` [Compound 396, 2-allyl-6-((2-(tert-butyl)-2H-indazol-5-yl)amino)-1-(6-((1-methylpiperidin-4-yl)oxy)pyridin-2-yl)-1,2-dihydro-3H-pyrazolo[3,4-d]pyrimidin-3-one], the figures for the IC50 in test [1] and in test [3] were under 10 nM and under 20 nM, respectively. Moreover, the EC50 in test [2] is under 100 nM; in the test with ACHN cells, at most 100 nM; in test [4] it was under 200 nM.

For the compound `[2H]C([2H])([2H])N1CCC(Oc2cccc(-n3c4nc(Nc5ccc6c(cnn6C(C)C)c5)ncc4c(=O)n3CC=C)n2)CC1` [Compound 354, 2-allyl-6-(1-isopropyl-1H-indazol-5-ylamino)-1-(6-{1-[(^2H3)methyl]-4-piperidyloxy}-2-pyridyl)-1,2-dihydro-3H-1,2,5,7-tetraazainden-3-one], the EC50 in test [2] was under 100 nM; in the test with ACHN cells it was at most 100 nM; in test [4] it was under 200 nM. In addition, in test [3], the IC50 was under 20 nM.
